Each structure is given as a SMILES string. The source made the active and inactive calls. Rule as the data show it: actives have a measured IC50 and inactives only a lower limit.

The IC50 is the concentration at which inhibition is half-maximal.

Chain of Envelope glycoprotein gp160 (Q6QLK5 whole entry, the tested form may be a part): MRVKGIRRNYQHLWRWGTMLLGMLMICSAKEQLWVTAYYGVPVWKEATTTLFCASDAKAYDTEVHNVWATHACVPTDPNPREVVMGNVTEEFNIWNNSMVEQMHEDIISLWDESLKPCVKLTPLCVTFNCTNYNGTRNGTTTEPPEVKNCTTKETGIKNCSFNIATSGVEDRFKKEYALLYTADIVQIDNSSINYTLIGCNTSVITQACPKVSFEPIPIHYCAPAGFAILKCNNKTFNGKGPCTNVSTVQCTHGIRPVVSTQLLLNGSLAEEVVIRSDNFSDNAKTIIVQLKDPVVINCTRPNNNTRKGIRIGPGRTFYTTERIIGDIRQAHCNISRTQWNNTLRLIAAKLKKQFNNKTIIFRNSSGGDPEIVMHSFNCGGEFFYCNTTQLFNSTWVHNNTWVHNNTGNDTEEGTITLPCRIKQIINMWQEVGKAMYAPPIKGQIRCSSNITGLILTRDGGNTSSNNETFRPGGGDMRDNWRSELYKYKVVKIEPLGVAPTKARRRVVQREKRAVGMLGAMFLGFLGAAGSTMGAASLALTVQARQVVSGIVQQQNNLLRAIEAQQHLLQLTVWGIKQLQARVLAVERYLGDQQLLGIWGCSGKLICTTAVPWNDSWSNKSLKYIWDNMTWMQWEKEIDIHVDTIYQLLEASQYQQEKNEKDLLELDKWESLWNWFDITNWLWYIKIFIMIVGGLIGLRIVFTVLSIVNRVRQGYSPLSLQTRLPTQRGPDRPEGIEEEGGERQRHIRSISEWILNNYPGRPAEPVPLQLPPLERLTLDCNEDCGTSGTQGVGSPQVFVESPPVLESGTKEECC

The assay concerns the target Envelope glycoprotein gp160 (Human immunodeficiency virus 1, UniProt Q6QLK5). The assay can be described thus: inhibitors of HIV fusion peptide binding, primary screen, biochemical, uHTS, fluorescence dequenching (AID 1986).
`O=C(O)c1ccc(N2C(=O)/C(=C/c3ccc(-c4ccc([N+](=O)[O-])cc4)o3)C=C2c2ccccc2)cc1`: the IC50 is 9.9 µM (active).
On to `CCOC(=O)C1=C(C)N=c2s/c(=C\c3ccc(OCC(=O)O)cc3)c(=O)n2C1c1ccc(Cl)cc1` (centres undefined), for which the IC50 was 13.8 µM (active).
The result for `CC(=O)Nc1sc(/C(C#N)=C/c2ccc(Cl)c(Cl)c2)nc1-c1ccc(C)cc1` reads 2.04 µM (active).
The result for `COc1cc([N+](=O)[O-])cc(/C=C2/SC(=S)N(Cc3ccccc3)C2=O)c1O` reads 32.6 µM (active).
